We go through 27 molecules from patent US9624170B2, “4-(piperrazin-1-yl)-pyrrolidin-2-one compounds as monoacylglycerol lipase (MAGL) inhibitors” (TAKEDA PHARMACEUTICAL COMPANY LIMITED, priority 2013, dated 2017).

One assay has as its target T1, human MAGL (His-hMAGL) (Homo sapiens, UniProt Q99685).
T1 construct: made in house; host or cells: Escherichia coli BL21(DE3)
T1 sequence (Q99685 1-303): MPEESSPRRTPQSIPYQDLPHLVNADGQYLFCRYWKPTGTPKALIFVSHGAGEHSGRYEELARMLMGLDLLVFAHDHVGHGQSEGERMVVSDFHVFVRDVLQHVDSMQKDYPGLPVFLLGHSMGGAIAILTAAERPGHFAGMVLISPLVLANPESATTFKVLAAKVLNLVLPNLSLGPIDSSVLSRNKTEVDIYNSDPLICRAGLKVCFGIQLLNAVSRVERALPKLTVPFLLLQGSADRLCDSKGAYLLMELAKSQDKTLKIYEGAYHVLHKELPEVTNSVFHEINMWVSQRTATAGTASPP
Description: Measurement of MAGL inhibitory activity by mass spectrometry. The class given is biochemical. The following applies: 10 μM test compound; substrate 2-arachidonylglycerol, arachidonic acid by RapidFire-mass spectrometry. How it is done:
Thereafter, to each well was added 150 μM 2-arachidonylglycerol (Tocris Bioscience) by 5 μL, and the mixture was incubated at room temperature for 10 min. Then, 2% formic acid (Wako Pure Chemical Industries, Ltd.) was added by 10 μL to discontinue the reaction. Furthermore, acetonitrile (50 μL) containing 3 μM arachidonic acid-d8 (Cayman Chemical Company) was added and the mixture was stirred. The amount of arachidonic acid in the obtained enzyme reaction mixture was calculated by measuring by RapidFire-mass spectrometry and correcting by the amount of arachidonic acid-d8. High Throughput online solid phase extraction was performed using RapidFire 300TM system (Agilent Technologies, Inc.). […] The injection needle was washed with ultrapure water (500 millisecond) and acetonitrile (500 millisecond) to minimize carry-over. […] The RapidFire300 system was controlled by RapidFire UI software version 3.6 (Agilent Technologies, Inc.). The mass spectrometry of the resultant product was performed using […] triple quadrupole mass spectrometer (AB SCIEX) equipped with an electrospray ion sauce (Turbolon SprayTM) in a negative selected reaction monitoring (SRM) mode. The conditions of SRM are shown below. The parameters of the instrument were optimized as follows: capillary temperature 600° C., ion spray voltage -4.5 kV, collision gas 8, curtain gas 15 psi, ion source gas 1 60 psi, ion source gas 2 60 psi. The mass spectrometer was controlled by AnalystTM software version 1.5.1 (AB SCIEX). The peak area integration was analyzed using RapidFire integrator software version 3.6 (Agilent Technologies, Inc.). MAGL inhibitory rate (%) was calculated according to the following calculation formula.
A word on the inhibition: it is the change of the read-out against control, counted positive when it falls. Turning to `CC(=O)Nc1cccc(-c2cccc(N3CC(N4CCN(C(=O)c5nccs5)CC4)CC3=O)c2)c1` (stereo not drawn) [Example 95, N-(3′-(2-oxo-4-(4-(1,3-thiazol-2-ylcarbonyl)piperazin-1-yl)pyrrolidin-1-yl)biphenyl-3-yl)acetarnide], the inhibition at 10 µM stood at 99%.
Same read-out and setting: in the case of `Cc1cccc(C)c1-c1cccc(N2CC(N3CCN(C(=O)c4nccs4)CC3)CC2=O)c1` (stereo not drawn) [Example 132, 1-(2′,6′-dimethylbiphenyl-3-yl)-4-(4-(1,3-thiazol-2-ylcarbonyl)piperazin-1-yl)pyrrolidin-2-one] it was 101%; in that of `O=C(c1nccs1)N1CCN(C2CC(=O)N(c3ccc4c(cnn4Cc4ccc(F)cc4)c3)C2)CC1` (stereo not drawn) [Example 114, 1-(1-(4-Fluorobenzyl)-1H-indazol-5-yl)-4-(4-(1,3-thiazol-2-ylcarbonyl)piperazin-1-yl)pyrrolidin-2-one], 98%.
Same read-out and setting: in the case of `O=C(c1nccs1)N1CCN(C2CC(=O)N(c3cccc(-c4c(Cl)cccc4Cl)c3)C2)CC1` (stereo not drawn) [Example 146, 1-(2′,6′-dichlorobiphenyl-3-yl)-4-(4-(1,3-thiazol-2-ylcarbonyl)piperazin-1-yl)pyrrolidin-2-one] it was 100%.
On the same count and under the same terms, with `CN1CC(Nc2cccc(N3CC(N4CCN(C(=O)c5nccs5)CC4)CC3=O)c2)CCC1=O` (stereo not drawn) [Example 127, 1-methyl-5-((3-(2-oxo-4-(4-(1,3-thiazol-2-ylcarbonyl)piperazin-1-yl)pyrrolidin-1-yl)phenyl)amino)piperidin-2-one] the figure was 99%.

Still in this assay, the particulars now being: MAGL inhibitory rate, test compound 10 μM, His-hMAGL, substrate 2-arachidonylglycerol, RapidFire-mass spectrometry.
Take `O=C(c1nccs1)N1CCN(C2CC(=O)N(c3cccc(-c4ccnc5sccc45)c3)C2)CC1` (stereo not drawn) [Example 346, 4-(4-(1,3-thiazol-2-ylcarbonyl)piperazin-1-yl)-1-(3-(thieno[2,3-b]pyridin-4-yl)phenyl)pyrrolidin-2-one]: the inhibition at 10 µM was found to be 99%.
In the case of `O=C(c1cscn1)N1CCN([C@@H]2CC(=O)N(c3ccc4c(c3)CCN4C(=O)Cc3cccc(Cl)c3)C2)CC1` [Example 416, (4R)-1-(1-((3-chlorophenyl)acetyl)-2,3-dihydro-1H-indol-5-yl)-4-(4-(1,3-thiazol-4-ylcarbonyl)piperazin-1-yl)pyrrolidin-2-one], the inhibition at 10 µM worked out at 99%.
On the same count and under the same terms, with `COc1ccccc1-c1cc(N2CC(N3CCN(C(=O)c4nccs4)CC3)CC2=O)cc2cc[nH]c12` (stereo not drawn) [Example 354, 1-(7-(2-methoxyphenyl)-1H-indol-5-yl)-4-(4-(1,3-thiazol-2-ylcarbonyl)piperazin-1-yl)pyrrolidin-2-one] the figure was 101%; with `C[C@H]1CN(C2CC(=O)N(c3ccc4c(ccn4-c4ccc(F)cc4)c3)C2)CCN1C(=O)c1nccs1` (stereo partly drawn) [Example 363, 1-(1-(4-fluorophenyl)-1H-indol-5-yl)-4-((3S)-3-methyl-4-(1,3-thiazol-2-ylcarbonyl)piperazin-1-yl)pyrrolidin-2-one], 96%.
Same read-out and setting: with `O=C(c1nccs1)N1CCN(C2CC(=O)N(c3ccc(-c4ccncc4)cc3)C2)CC1` (stereo not drawn) [Example 196, 1-(4-(pyridin-4-yl)phenyl)-4-(4-(1,3-thiazol-2-ylcarbonyl)piperazin-1-yl)pyrrolidin-2-one] the figure was 83%.
On the same count and under the same terms, in the case of `NC(=O)Cc1cccc(-c2ccc(N3CC(N4CCN(C(=O)c5nccs5)CC4)CC3=O)cc2)c1` (stereo not drawn) [Example 214, 2-(4′-(2-oxo-4-(4-(1,3-thiazol-2-ylcarbonyl)piperazin-1-yl)pyrrolidin-1-yl)biphenyl-3-yl)acetamide] it was 93%.
For `Cc1ccc(-n2ccc3cc(N4CC(N5CCN(C(=O)c6nccs6)CC5)CC4=O)ccc32)nc1` (stereo not drawn) [Example 239, 1-(1-(5-methylpyridin-2-yl)-1H-indol-5-yl)-4-(4-(1,3-thiazol-2-ylcarbonyl)piperazin-1-yl)pyrrolidin-2-one], the inhibition at 10 µM came out at 100%.
The same measure, in the same setting: with `C[C@@H]1CN(C(=O)c2nccs2)CCN1C1CC(=O)N(c2ccc3c(ccn3-c3ccc(F)cc3)c2)C1` (stereo partly drawn) [Example 359, 1-(1-(4-fluorophenyl)-1H-indol-5-yl)-4-((2R)-2-methyl-4-(1,3-thiazol-2-ylcarbonyl)piperazin-1-yl)pyrrolidin-2-one] the figure was 96%; with `O=C(c1nccs1)N1CCN(C2CC(=O)N(c3cccc(-c4cccnc4Cl)c3)C2)CC1` (stereo not drawn) [Example 199, 1-(3-(2-chloropyridin-3-yl)phenyl)-4-(4-(1,3-thiazol-2-ylcarbonyl)piperazin-1-yl)pyrrolidin-2-one], 101%.
Same read-out and setting: in the case of `Cc1cc(-c2ccc(N3CC(N4CCN(C(=O)c5nccs5)CC4)CC3=O)cc2)ccn1` (stereo not drawn) [Example 264, 1-(4-(2-methylpyridin-4-yl)phenyl)-4-(4-(1,3-thiazol-2-ylcarbonyl)piperazin-1-yl)pyrrolidin-2-one] it was 92%; in that of `NS(=O)(=O)c1cccc(-c2ccc(N3CC(N4CCN(C(=O)c5nccs5)CC4)CC3=O)cc2)c1` (stereo not drawn) [Example 194, 4′-(2-oxo-4-(4-(1,3-thiazol-2-ylcarbonyl)piperazin-1-yl)pyrrolidin-1-yl)biphenyl-3-sulfonamide], 96%; in that of `O=C(c1cscn1)N1CCN([C@@H]2CC(=O)N(c3ccc4c(ccn4-c4cccc(Cl)c4)c3)C2)CC1` [Example 428, (4R)-1-(1-(3-chlorophenyl)-1H-indol-5-yl)-4-(4-(1,3-thiazol-4-ylcarbonyl)piperazin-1-yl)pyrrolidin-2-one], 100%.
Same read-out and setting: in the case of `Cc1cc(-n2ccc3cc(N4CC(N5CCN(C(=O)c6nccs6)CC5)CC4=O)ccc32)ccn1` (stereo not drawn) [Example 255, 1-(1-(2-methylpyridin-4-yl)-1H-indol-5-yl)-4-(4-(1,3-thiazol-2-ylcarbonyl)piperazin-1-yl)pyrrolidin-2-one] it was 101%.
As to `O=C(O)c1cccc(-c2cccc(N3CC(N4CCN(C(=O)c5nccs5)CC4)CC3=O)c2)c1` (stereo not drawn) [Example 308, 3′-(2-oxo-4-(4-(1,3-thiazol-2-ylcarbonyl)piperazin-1-yl)pyrrolidin-1-yl)biphenyl-3-carboxylic acid], the inhibition at 10 µM amounted to 98%.
On to `O=C(c1nccs1)N1CCN([C@@H]2CC(=O)N(c3cc4ccn(-c5ccc(C(F)(F)F)cn5)c4cn3)C2)CC1` [Example 402, (4R)-4-(4-(1,3-thiazol-2-ylcarbonyl)piperazin-1-yl)-1-(1-(5-(trifluoromethyl)pyridin-2-yl)-1H-pyrrolo[2,3-c]pyridin-5-yl)pyrrolidin-2-one], for which the inhibition at 10 µM was 94%.
Consider `O=C(c1nccs1)N1CCN(C2CN(c3ccc(Oc4ccccc4)cc3)C(=O)C2O)CC1` (stereo not drawn) [Example 260, 3-Hydroxy-1-(4-phenoxyphenyl)-4-(4-(1,3-thiazol-2-ylcarbonyl)piperazin-1-yl)pyrrolidin-2-one], for which the inhibition at 10 µM was 84%.
Still for that read-out and setting: with `CCOc1ccccc1-c1cccc(N2CC(N3CCN(C(=O)c4nccs4)CC3)CC2=O)c1` (stereo not drawn) [Example 289, 1-(2′-ethoxybiphenyl-3-yl)-4-(4-(1,3-thiazol-2-ylcarbonyl)piperazin-1-yl)pyrrolidin-2-one] the figure was 103%.
Consider `Cc1nn(C)cc1-c1ccc(N2CC(N3CCN(C(=O)c4nccs4)CC3)CC2=O)cc1` (stereo not drawn) [Example 181, 1-(4-(1,3-dimethyl-1H-pyrazol-4-yl)phenyl)-4-(4-(1,3-thiazol-2-ylcarbonyl)piperazin-1-yl)pyrrolidin-2-one], for which the inhibition at 10 µM is 94%.
In the case of `Cc1cncc(-c2cccc(N3CC(N4CCN(C(=O)c5nccs5)CC4)CC3=O)c2)c1` (stereo not drawn) [Example 206, 1-(3-(5-methylpyridin-3-yl)phenyl)-4-(4-(1,3-thiazol-2-ylcarbonyl)piperazin-1-yl)pyrrolidin-2-one], the inhibition at 10 µM came out at 98%.
Still for that read-out and setting: with `O=C(c1cscn1)N1CCN(C2CC(=O)N(c3cccc(-c4cccnc4Cl)c3)C2)CC1` (stereo not drawn) [Example 223, 1-(3-(2-chloropyridin-3-yl)phenyl)-4-(4-(1,3-thiazol-4-ylcarbonyl)piperazin-1-yl)pyrrolidin-2-one] the figure was 101%; with `O=C(c1nccs1)N1CCN(C2CC(=O)N(c3ccc4oc(-c5ccc(F)cc5)nc4c3)C2)CC1` (stereo not drawn) [Example 386, 1-(2-(4-fluorophenyl)-1,3-benzoxazol-5-yl)-4-(4-(1,3-thiazol-2-ylcarbonyl)piperazin-1-yl)pyrrolidin-2-one], 99%.
Take `O=C(c1nccs1)N1CCN(C2CC(=O)N(c3cccc(-c4ccccc4OC(F)(F)F)c3)C2)CC1` (stereo not drawn) [Example 298, 4-(4-(1,3-thiazol-2-ylcarbonyl)piperazin-1-yl)-1-(2′-(trifluoromethoxy)biphenyl-3-yl)pyrrolidin-2-one]: the inhibition at 10 µM worked out at 101%.
